Data on 2 molecules can be found in patent US11123340B2, “Small-molecule UT-A-selective urea transport inhibitors” (The Regents of the University of California, priority 2014, dated 2021).

The target in one data set is T1, rat UT-B (Rattus norvegicus, UniProt P97689).
T1 construct: endogenous in cells; host or cells: rat erythrocytes (whole rat blood)
T1 sequence (P97689 1-384): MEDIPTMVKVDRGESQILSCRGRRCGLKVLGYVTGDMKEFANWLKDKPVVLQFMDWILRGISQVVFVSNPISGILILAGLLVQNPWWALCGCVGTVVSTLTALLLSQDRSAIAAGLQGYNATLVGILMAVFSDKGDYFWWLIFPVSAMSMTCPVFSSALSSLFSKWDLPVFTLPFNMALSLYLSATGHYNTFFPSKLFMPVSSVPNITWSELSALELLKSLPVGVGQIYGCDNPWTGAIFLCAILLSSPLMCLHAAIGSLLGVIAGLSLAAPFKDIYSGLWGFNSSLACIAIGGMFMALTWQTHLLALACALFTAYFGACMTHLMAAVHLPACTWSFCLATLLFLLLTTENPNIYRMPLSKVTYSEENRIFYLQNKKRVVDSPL
The data set is described as follows: UT-B inhibition, erythrocyte lysis assay. The data set is classed as cell-based. On the procedure:
As described (see, e.g., Levin et al. (2007) FASEB J. 21, 551-563), whole rat blood was diluted to a hematocrit of ˜1.5% in PBS containing 1.25 M acetamide and 5 mM glucose. Erythrocyte suspensions (100 μL) were added to 96-well round-bottom microplates and test compounds (1 μL) were added. After 15 min incubation, 20 μL of the erythrocyte suspension was added rapidly to each well containing 180 μL of PBS. Following vigorous mixing, erythrocyte lysis was quantified by absorbance at 710 nm. Non-lysed controls (isosmolar buffer) and lysed controls (0.7 mM phloretin) were added in each plate as negative and positive controls, respectively. Percentage erythrocyte lysis was computed as: % lysis=100% (Aneg−Atest)/(Aneg−Apos), where A is absorbance at 710 nm.
Inhibitor selectivity for rat UT-A1 versus UT-B was investigated using an erythrocyte lysis assay of rat UT-B urea transport, which involved measurement of hypotonic lysis (by near-infrared absorbance) of acetamide-loaded erythrocytes following rapid dilution into acetamide-free buffer.

A further data set has as its system MDCK cells. Description: Cell toxicity, Alamar blue assay. The conditions noted are these: 24 h, up to 25 μM. Format: cell-based, canine. On the procedure: MDCK cells on black 96-well Costar microplates with clear plastic bottoms were cultured for 24 h at 37° C. and incubated with test compounds (0 to 25 μM) for 24 h. Cell viability was assayed using AlamarBlue (Pierce, Rockford, Ill.) in which the reagent was added to each well, incubated for 30 min, and absorbance measured at 590 nm. For short-circuit current measurement, snapwell inserts containing MDCK cells were mounted on Ussing chambers. Test compounds (20 μM) were incubated with MDCK cells at both apical and basolateral sides for 10 min at 37° C. prior to addition of 20 μM forskolin and then 100 μM ATP. The apical and basolateral chambers contained identical solutions: 120 mM NaCl, 5 mM KCl, 1 mM MgCl2, 1 mM CaCl2, 5 mM HEPES, 25 mM NaHCO3 and 10 mM glucose. Solutions were bubbled with 5% CO2/95% O2 and maintained at 37° C. […]
Compound toxicity was evaluated by compound incubation for 24 h with MDCK cell cultures followed by Alamar blue assay. […] To assess potential ion channel off-target effects, short-circuit current was measured in MDCK cells in response to cAMP (forskolin) and calcium (ATP) agonists (FIG. 5C, right), which depends on the actions of multiple anion (CFTR, calcium-activated chloride channels) and cation (K^+, Na^+) channels.

The IC50 is the midpoint of a concentration-inhibition curve. Higher therefore signals a need for much substance.

`COc1ccc(C)cc1S(=O)(=O)Nc1ccc(Cl)c(N2CCCS2(=O)=O)c1` [UTA1inh-F11, N-[4-Chloro-3-(1,1-dioxido-1,2-thiazolidin-2-yl)phenyl]-2-methoxy-5-methylbenzene-sulfonamide] registered an IC50 at rat UT-B (rat erythrocytes) of 10 µM. For the same molecule, the toxicity result in the data set with MDCK cells was “little toxicity”.

As for `CC(=O)Nc1ccc(-c2csc(-c3c[nH]c4ccccc34)n2)cc1` [UTA1inh-E02, N-(4-(2-(1H-indol-3-yl)thiazol-4-yl)phenyl)acetamide], the “selectivity for UT-A1 versus UT-B” value at rat UT-B (rat UT-A1 versus rat UT-B) is given as “high selectivity”. Also, in the data set on MDCK cells, the toxicity entry is given as “little toxicity”.
